Series [1] can be described thus: Ca2+ binding capability by 1H NMR in the presence of CaCl2. The note with it: 1a 5.6 mM in D2O, CaCl2 at 1.5 mM and 15 mM, 500 MHz, 298 K. As to the method:
Despite these differences, it was observed that the lipid sp^2 proton signals closely matched that of the natural product and no peaks arising from cis-trans isomerization were observed, indicating the tolerance of acid-sensitive lipid 25 to the optimized TFA side chain deprotection conditions and HPLC purification protocols.
[picture] Figure S16. Overlay of ^1H NMR spectra of synthetic 1a (5.6 mM) recorded at 500 MHz, 298 K in D2O spiked with Et3N (1.88 mM) and CaCl2 of varying concentrations: 0 mM CaCl2 (bottom), 1.5 mM CaCl2 (middle), 15 mM CaCl2 (top).

Series [2] has as its system Staphylococcus aureus (ATCC 29213). It counts as cell-based. As for the experimental part:
MIC assays were performed in accordance with the CLSI recommended protocol^17 with minor adjustments. Briefly, Staphylococcus aureus (ATCC 29213) was grown at 37 °C with shaking (200 rpm) in Mueller Hinton (MH) broth supplemented with either 1.5 mM (near the concentration commonly employed for daptomycin testing [1.25 mM]) or 15 mM CaCl2 (in accordance with the reported testing of malacidin by Hover et al.^1) from an autoclaved stock solution of CaCl2. The respective Ca^2+ adjusted media was used for all further compound and culture dilutions. A two-fold dilution series of the test compounds was prepared in triplicate in polypropylene 96-well plates. Cultures of bacteria grown for 8 h were diluted accordingly in fresh media before adding 50 µL of inoculum to each well of the MIC plate, to achieve a final volume of 100 µL with a uniform CFU/ml of ~5 x10^5 in each well. A growth control (untreated) and sterility control (non-inoculated) well were included for each test compound replicate. Plates were incubated at 37 °C with shaking for 18 h before determining the MIC by visual inspection. MIC values were determined as the lowest concentration at which no growth was observed consistently across all three biological replicates of the assay and within triplicates of each test compound.
Table S2. MIC values of diastereomer 1a at different CaCl2 concentrations.

Series [3] relates to Staphylococcus aureus ATCC 6538. The experiment in a line: microbe, parasite or virus in culture. It counts as cell-based. As to conditions: for MIC: S. aureus ATCC 6538, CAMHB, in presence of 50 mg L^-1 of CaCl2, 37 °C, 18 to 24 h, biological triplicate, maximum concentration 128 µg mL^-1. As for the experimental part: Antimicrobial susceptibility testing was performed in biological triplicate by determining the minimum inhibitory concentrations (MIC) of the six malacidin analogues and the control antibiotics, penicillin G and daptomycin. Malacidin analogues 31, 36, 39, and 40 were prepared as 10 mg mL^-1 stock solutions in filter sterilised MilliQ water. Compounds 37, and 38 were prepared as 5 mg mL^-1 stock solutions in filter sterilised MilliQ water. Malacidin analogues were tested at a maximum concentration of 128 µg mL^-1. Bacterial inoculums of Staphylococcus aureus ATCC 6538 were prepared by diluting an overnight culture to a final optical density 600 nm (OD600) of 0.003 in cation adjusted Mueller Hinton broth (CAMH) to yield 5 × 10^5 CFU mL^-1 (final) in all assays. MIC assays were performed in 96-well microtiter plates in a total volume of 100 µL, and compounds were serially diluted across the plate in 2-fold dilutions. The MIC was reported as the lowest concentration of the test compound for which no growth occurred after incubation at 37 °C for 18 to 24 h. For all MIC testing CAMHB was supplemented with calcium (50 mg L^-1 final) as per the CLSI guidelines for daptomycin^17
Table S3. MIC values of simplified analogues 31, 36-40 in presence of 50 mg L^-1 of CaCl2.^aTesting was additionally performed in the absence of CaCl2 and no activity for any of the malacidin analogues was observed against S. aureus.

The conditions of series [4]: ref Hover et al., 2018; cited from earlier work. From the text: Evaluation of the antibacterial activity of the synthesized analogues 1a, 31 and 36–40 was then undertaken.
The next series relates to S. aureus. As to conditions: after repeated exposure to S. aureus; ref Hover et al., 2018; cited from earlier work. From the text:
(§1) In 2018, Brady et al. reported the isolation of malacidin A (1) as part of an extensive metagenomic mining study of bacterial DNA obtained from soil samples in search of novel bioactive natural products ([Owen et al., 2013]; [Hover et al., 2018]). […] Malacidin ...

The conditions of series [5]: cited from earlier work.
Description: as §1

Series [6] relates to vancomycin-resistant Enterococcus faecium (VRE). The note with it: ref Hover et al., 2018; cited from earlier work.
Description: as §1

The test system of series [7] is methicillin-resistant Staphylococcus aureus (MRSA), MRSA USA300. As to conditions: ref Hover et al., 2018, cited from earlier work. From the text:
In 2018, Brady et al. reported the isolation of malacidin A (1) as part of an extensive metagenomic mining study of bacterial DNA obtained from soil samples in search of novel bioactive natural products ([Owen et al., 2013]; [Hover et al., 2018]). […] Malacidin ... || FIGURE 1 Structure of malacidin A (1); non-canonical amino acids and the lipid tail are highlighted in purple; the undefined stereochemistry of β-carbon centers is indicated with an asterisk; the calcium-binding region residues are specified in red; the macrolactam bond is highlighted with blue shading. The stereochemistry and MIC values of the isolated malacidin A (1) ([Hover et al., 2018]) and synthesized diastereomers [this work 1a, the Li group 1b–1e ([Sun et al., 2020])] are shown above; X in 1 represents undefined stereochemistry. TEXT PRINTED IN THE PICTURE: Malacidin A (1): MIC (μg mL^ ...

Where two headings read alike, the source gives them in different places. Positions of bridges follow the written chain, without caps; N, C: chain ends. Non-standard residues stand in square brackets, D forms with d. Residues, ends and D or L forms follow the SMILES beside them. *: point of attachment. Benzoyl(4-Ph) = O=C(c1ccc(-c2ccccc2)cc1)*; Decanoyl = CCCCCCCCCC(=O)*; Dap = NC[C@H](N)C(=O)O

As for `CC(C)CC/C=C\C=C\C(=O)N[C@H](C(=O)N[C@@H]1C(=O)N[C@H](C(C)C)C(=O)N[C@@H](CCCCN)C(=O)N[C@@H]([C@H](O)C(=O)O)C(=O)N[C@@H](CC(=O)O)C(=O)NCC(=O)N[C@H]([C@@H](C)C(=O)O)C(=O)N[C@@H](C(C)C)C(=O)N2C[C@H](C)C[C@H]2C(=O)N[C@H]1C)[C@H](C)C(=O)O` [1a], the “interaction with Ca^2+ ions (signal shifts or line broadening in 1H NMR)” value in series [1] is recorded as “fails to interact with Ca^2+ ions”. Moreover, the “activity toward S. aureus” value in series [2] (15 mM CaCl2 (Supplementary Table S2)) and in series [2] (media supplemented with 1.25–1.5 mM CaCl2 (Supplementary Table S2)) was “no activity” throughout. Moreover, the MIC in series [2] (S.aureus strain: ATCC 29213, Figure 1, this work) is more than 64 µg/mL.

In the case of `CCCCCCCCCC(=O)N[C@@H](CC(=O)O)C(=O)N[C@H]1CNC(=O)[C@@H]2CCCN2C(=O)[C@H](C(C)C)NC(=O)[C@@H](CC(=O)O)NC(=O)CNC(=O)[C@H](CC(=O)O)NC(=O)[C@H](CC(=O)O)NC(=O)[C@H](CCCCN)NC(=O)[C@@H](C(C)C)NC1=O` [compound 31] (Decanoyl-D[Dap][dV]KDDG[dD]VP; lactam 2-C), the “activity toward S. aureus” value in series [3] (media supplemented with 1.25–1.5 mM CaCl2 (Supplementary Table S3)) is listed as “no activity”.

`CC1(C)S[C@@H]2[C@H](NC(=O)Cc3ccccc3)C(=O)N2[C@H]1C(=O)O` [Penicillin G, penicillin G]: the MIC in series [3] (Staphylococcus aureus, ATCC6538, read-out: MIC) was found to be 0.0312 µg/mL.

malacidin A: the “CaCl2 concentration of maximum activity” value in series [4] is on record as 15 mM. For the same molecule, in the series on S. aureus, the induction of resistance entry is reported as “did not induce resistance”. The cytotoxicity result in series [5] is on record as “non-cytotoxic”. Moreover, the molecular target bound result in series [5] (preliminary mechanistic studies, ref Hover et al., 2018) is “binding to lipid II”. Also, the MIC in series [6] is 0.8 to 2.0 µg/mL; in series [7] (MRSA), 0.2 to 0.8 µg/mL; in series [7] (S.aureus strain: MRSA USA300, Figure 1), 0.2 to 0.8 µg/mL.

In the case of `CC(C)[C@@H]1NC(=O)[C@@H](CC(=O)O)NC(=O)CNC(=O)[C@H](CC(=O)O)NC(=O)[C@H](CC(=O)O)NC(=O)[C@H](CCCCN)NC(=O)[C@@H](C(C)C)NC(=O)[C@@H](NC(=O)[C@H](CC(=O)O)NC(=O)c2ccc(-c3ccccc3)cc2)CNC(=O)[C@@H]2CCCN2C1=O` [compound 40] ({Benzoyl(4-Ph)}-D[Dap][dV]KDDG[dD]VP; lactam 2-C), the MIC in series [3] is recorded as >128 >128 µg/mL.

The values are drawn from publication PMC8372822, “A Concise Synthetic Strategy Towards the Novel Calcium-dependent Lipopeptide Antibiotic, Malacidin A and Analogues” (Frontiers in Chemistry, 2021).
